Assay results from patent publication US9849110B2, “Intermittent fibrate administration method” (Biocopea Limited, priority 2012, dated 2017).

What was measured:
[1] = Example 4: blood test of LDL, HDL and cholesterol levels, periodic treatment with lovastatin, person; format: in vivo, human
Experimental: A person visits their physician and during the visit undergoes a blood test. The person is found to have an LDL level of 91 mg/dl, HDL level of 40 mg/dl and a cholesterol level of 222 mg/dl. […] To remind the person to take lovastatin after each four month break, the physician inputs the days that the person is to take lovastatin and arranges for the person to receive a letter by postal mail to remind them to take the lovastatin. Four months after taking the first weeks dose of lovastatin, the person receives a reminder by postal mail to take the second weeks dose. This repeats on an every four month basis. The person returns to the physician for a follow on blood test one year later and they are found to have LDL level of 109 mg/dl, HDL level of 45 mg/dl and a cholesterol level of 184 mg/dl. The person continues taking the atorvastatin for a week followed by a break of four months, which they repeat for the rest of their life, with their LDL levels ranging from 115-120, HDL levels ranging from 45-51 and their cholesterol levels ranging from 151-162.

[2] = Example 5: blood test of LDL, HDL and cholesterol levels, periodic treatment with gemfibrozil, person; format: in vivo, human
Experimental: A person visits their physician and during the visit undergoes a blood test. The person is found to have an LDL level of 74 mg/dl, HDL level of 32 mg/dl and a cholesterol level of 311 mg/dl. The physician prescribes gemfibrozil at an initial dose of 600 mg taken orally for one week followed by a one month break, followed by a week of taking gemfibrozil followed by a month break, which schedule is repeated thereafter. To remind the person to take gemfibrozil after the monthly break, the physician inputs the days that the person is to take gemfibrozil and arranges for the person to receive text messages through their cell phone and a telephone call to remind them to take gemfibrozil. One month after taking the first weeks dose of gemfibrozil, the person receives a reminder by text to take the second weeks dose of gemfibrozil. This repeats on a monthly basis. The person returns to the physician for a follow on blood test six months later and they are found to have LDL level of 101 mg/dl, HDL level of 41 mg/dl and a cholesterol level of 211 mg/dl. The physician recommends that the person continue to take gemfibrozil for a week followed by a month break, which the person does on a repeated basis. A year later the person returns to the physician for a blood test.

[3] = Example 2: blood test of LDL, HDL and cholesterol levels, periodic treatment with atorvastatin, person; format: in vivo, human; conditions: 40 mg orally, one week on / a month off, after six months
[4] = as above; format: in vivo, human; conditions: for HDL level / LDL level / cholesterol level: one week on / two months off
Experimental: A person visits their physician and during the visit undergoes a blood test. The person is found to have an LDL level of 92 mg/dl, HDL level of 41 mg/dl and a cholesterol level of 212 mg/dl. […] To remind the person to take atorvastatin after the monthly breaks, they download an application to their smart phone and inputs the first day they are to take atorvastatin and the application automatically determines the day a month after stopping taking atorvastatin that they are to start taking the atorvastatin again. A month after taking the first weeks dose of atorvastatin, the person receives a reminder from the application on their smart phone to take the second dose of atorvastatin. This repeats on a monthly basis. The person returns to the physician for a follow on blood test six months later and they are found to have LDL level of 120 mg/dl, HDL level of 45 mg/dl and a cholesterol level of 161 mg/dl. At this point the physician changes the frequency of the breaks between week of dosing to every two months, while maintaining the dose of 20 mg. The person inputs the new schedule into the application on their smart phone and they are reminded to take atorvastatin every two month by the application. Six months later, the person returns to the physician for a blood test. […] The physician recommends that the person continue to take atorvastatin for a week followed by a two month break, which the person does. A year later the person returns to the physician for a blood test. […] The person continues taking the atorvastatin for a week every two months for the rest of their life, with their LDL levels ranging from 115-120, HDL levels ranging from 45-51 and their cholesterol levels ranging from 151-162.

[5] = Example 3: blood test of LDL, HDL and cholesterol levels, periodic treatment with fluvastatin, person; format: in vivo, human
Experimental: A person visits their physician and during the visit undergoes a blood test. The person is found to have an LDL level of 87 mg/dl, HDL level of 41 mg/dl and a cholesterol level of 266 mg/dl. […] To remind the person to take fluvastatin following the two month breaks, the physician inputs the days that the person is to take fluvastatin and arranges for the person to receive text messages through Skype that the person will receive on their cell phone and their personal computer. Two months after taking the first weeks dose of atorvastatin, the person receives a reminder by text to take the second weeks dose of atorvastatin two months later. This repeats every two months. The person returns to the physician for a follow on blood test six months later and they are found to have LDL level of 112 mg/dl, HDL level of 47 mg/dl and a cholesterol level of 188 mg/dl. At this point the physician changes the frequency of dosing to one week taking fluvastatin followed by a break of three months at a dose of 40 mg, with this schedule repeating thereafter. The physician inputs the new schedule so that the person receives text messages every three months to restart taking fluvastatin. A year later, the person returns to the physician for a blood test. […] The physician recommends that the person continue to take fluvastatin for a week followed by a three month break and repeating this schedule thereafter, which the person does. A year later the person returns to the physician for a blood test. […] The person continues taking the atorvastatin for a week followed by a three month break and repeating this schedule for the rest of their life, with their LDL levels ranging from 115-120, HDL levels ranging from 45-51 and their cholesterol levels ranging from 151-162.

[6] = meta-analysis of clinical trials; cited from earlier work
[7] = one week on / four months off, for the rest of their life, in mg/dL
[8] = a week every two months, for the rest of their life, in mg/dL
[9] = dose of 20 mg, after six months
[10] = once monthly administration (so in the source)
[11] = one week on / three month break, for the rest of their life, in mg/dL
[12] = 600 mg orally, one week on / one month off, after six months
[13] = one week on / one month off, a year later
[14] = one week on / one month off, for the rest of their life, in mg/dL
[15] = 40 mg, one week on / four months off, one year later

## CC(C)c1c(C(=O)Nc2ccccc2)c(-c2ccccc2)c(-c2ccc(F)cc2)n1CC[C@@H](O)C[C@@H](O)CC(=O)O [atorvastatin]
[1]; [7]
  HDL levels ranging: 45-51
  LDL levels ranging: 115-120
  cholesterol levels ranging: 151-162
[2]; once monthly administration
  maintaining normal levels of LDL, HDL and cholesterol: successful at maintaining normal levels of LDL, HDL and cholesterol
[3]
  HDL level: 45 mg/dL
  LDL level: 120 mg/dL
  cholesterol level: 161 mg/dL
[4]; [8]
  HDL levels ranging: 45-51
  LDL levels ranging: 115-120
  cholesterol levels ranging: 151-162
[4]; [9]
  HDL level: 48 mg/dL
  LDL level: 120 mg/dL
  cholesterol level: 160 mg/dL
[4]; [10]
  maintaining normal levels of LDL, HDL and cholesterol: successful at maintaining normal levels of LDL, HDL and cholesterol
[4]; a year later
  HDL level: 48 mg/dL
  LDL level: 118 mg/dL
  cholesterol level: 161 mg/dL
[5]; [10]
  maintaining normal levels of LDL, HDL and cholesterol: successful at maintaining normal levels of LDL, HDL and cholesterol
[5]; [11]
  HDL levels ranging: 45-51
  LDL levels ranging: 115-120
  cholesterol levels ranging: 151-162

## COCc1c(C(C)C)nc(C(C)C)c(/C=C/[C@@H](O)C[C@@H](O)CC(=O)O)c1-c1ccc(F)cc1 [cerivastatin]
[6]
  rhabdomyolysis: rhabdomyolysis did not occur

## Cc1ccc(C)c(OCCCC(C)(C)C(=O)O)c1 [gemfibrozil]
[2]; [12]
  HDL level: 41 mg/dL
  LDL level: 101 mg/dL
  cholesterol level: 211 mg/dL
[2]; [13]
  HDL level: 44 mg/dL
  LDL level: 106 mg/dL
  cholesterol level: 191 mg/dL
[2]; [14]
  HDL levels ranging: 45-51
  LDL levels ranging: 115-120
  cholesterol levels ranging: 151-162

## CC[C@H](C)C(=O)O[C@H]1C[C@@H](C)C=C2C=C[C@H](C)[C@H](CC[C@@H]3C[C@@H](O)CC(=O)O3)[C@H]21 [lovastatin]
[1]; [15]
  HDL level: 45 mg/dL
  LDL level: 109 mg/dL
  cholesterol level: 184 mg/dL
[1]; once every four month administration
  maintaining normal levels of LDL, HDL and cholesterol: successful at maintaining normal levels of LDL, HDL and cholesterol
